Values quoted from earlier work, collected in US20100120733A1, “STEROID MODULATORS OF GLUCOCORTICOID RECEPTOR” (AUSPEX PHARMACEUTICALS, INC., priority 2008, published 2010).

Details: pooled data

SMILES | elimination half-life [h]
CC(C)C(=O)OCC(=O)[C@@]12O[C@H](C3CCCCC3)O[C@@H]1C[C@H]1[C@@H]3CCC4=CC(=O)C=C[C@]4(C)[C@H]3[C@@H](O)C[C@@]12C [ciclesonide, 16,17-[[(R)-cyclohexylmethylene]bis(oxy)]-11-hydroxy-21-(2-methyl-1-oxopropoxy)-(11-beta,16-alpha)-pregna-1,4-diene-3,20-dione] | 0.71
C[C@]12C=CC(=O)C=C1CC[C@@H]1[C@@H]2[C@@H](O)C[C@@]2(C)[C@H]1C[C@H]1O[C@@H](C3CCCCC3)O[C@]12C(=O)CO [des-CIC, desisobutyryl-ciclesonide] | 3.5
